Source: ChEMBL document CHEMBL4382262, “Structurally Simple, Readily Available Peptidomimetic 1-Benzyl-5-methyl-4-( n-octylamino)pyrimidin-2(1 H)-one Exhibited Efficient Cardioprotection in a Myocardial Ischemia (MI) Mouse Model” (J Med Chem, 2018)
Active and inactive are the calls of the source. The rule behind the calls is not given here.

Assays:
[1] = Hepatotoxicity in C57BL mouse model of left anterior descending coronary artery ligation-induced myocardial ischemia assessed as effect on serum AST levels at 0.05 to 1 mg/kg, iv pretreated for 1 hr followed by left anterior descending coronary artery ligation; assay type: toxicity, organism-based; conditions: in vivo
[2] = Reduction in hypoxia-induced TLR4 protein expression in Sprague-Dawley rat cardiomyocytes at 20 uM preincubated for 1 hr followed by hypoxia for 3 hrs by Western blot analysis relative to untreated control; assay type: functional, Cardiac muscle cell
[3] = molecular target: T1, Toll-like receptor 4 (Rattus norvegicus) (UniProt Q9QX05); test: Inhibition of TLR4 in Sprague-Dawley rat cardiomyocytes assessed as reduction in hypoxia-induced IRF3 protein expression at 20 uM preincubated for 1 hr followed by hypoxia for 3 hrs by Western blot analysis relative to untreated control; assay type: cell-based
T1 sequence (whole entry): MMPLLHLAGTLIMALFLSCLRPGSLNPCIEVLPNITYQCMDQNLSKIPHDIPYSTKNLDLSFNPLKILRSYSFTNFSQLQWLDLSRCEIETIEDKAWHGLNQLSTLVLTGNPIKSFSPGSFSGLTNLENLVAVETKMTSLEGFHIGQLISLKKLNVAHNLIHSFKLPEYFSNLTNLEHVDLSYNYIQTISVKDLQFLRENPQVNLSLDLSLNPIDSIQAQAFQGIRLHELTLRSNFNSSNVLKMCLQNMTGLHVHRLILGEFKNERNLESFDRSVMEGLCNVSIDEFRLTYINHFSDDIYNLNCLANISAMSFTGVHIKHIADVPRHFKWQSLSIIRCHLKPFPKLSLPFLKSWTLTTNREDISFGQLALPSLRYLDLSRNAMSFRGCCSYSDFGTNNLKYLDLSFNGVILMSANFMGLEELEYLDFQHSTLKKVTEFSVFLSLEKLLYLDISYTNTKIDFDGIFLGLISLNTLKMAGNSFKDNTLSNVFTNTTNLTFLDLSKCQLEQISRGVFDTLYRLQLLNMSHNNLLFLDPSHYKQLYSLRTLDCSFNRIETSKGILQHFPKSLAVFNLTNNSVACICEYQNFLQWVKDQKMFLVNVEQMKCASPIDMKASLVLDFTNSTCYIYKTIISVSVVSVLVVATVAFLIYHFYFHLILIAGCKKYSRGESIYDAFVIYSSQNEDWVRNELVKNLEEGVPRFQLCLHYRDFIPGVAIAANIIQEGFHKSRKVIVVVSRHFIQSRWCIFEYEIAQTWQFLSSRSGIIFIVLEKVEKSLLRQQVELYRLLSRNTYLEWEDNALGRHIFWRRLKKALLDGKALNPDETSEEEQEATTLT

[4] = molecular target: T1, Toll-like receptor 4 (Rattus norvegicus); test: Inhibition of TLR4 in Sprague-Dawley rat cardiomyocytes assessed as reduction in hypoxia-induced creatine kinase levels at 30 uM preincubated for 1 hr followed by hypoxia for 3 hrs by NADP reduction based colorimetric analysis; assay type: cell-based
[5] = molecular target: T1, Toll-like receptor 4 (Rattus norvegicus); test: Inhibition of TLR4 in Sprague-Dawley rat cardiomyocytes assessed as reduction in hypoxia-induced LDH release at 20 uM preincubated for 1 hr followed by hypoxia for 3 hrs by NADH detection based colorimetric analysis; assay type: cell-based
Mus musculus [6] = test: (§1) Cardioprotective activity in C57BL mouse model of left anterior descending coronary artery ligation-induced myocardial ischemia assessed as reduction in creatine kinase levels at 0.3 mg/kg, iv treated 1 hr after by left anterior descending coronary artery ligation and measured after 7 days post LAD; assay type: functional, organism-based
[7] = molecular target: T1, Toll-like receptor 4 (Rattus norvegicus); test: Inhibition of TLR4 in Sprague-Dawley rat cardiomyocytes assessed as reduction in hypoxia-induced LDH levels by measuring NADH levels at 20 uM preincubated for 1 hr followed by induction of hypoxia measured after 3 hrs by colorimetric analysis; assay type: cell-based
Cardiac muscle cell = test: Cytotoxicity against Sprague-Dawley rat cardiomyocytes assessed as reduction in cell viability at 50 uM; assay type: cell-based
[8] = molecular target: T1, Toll-like receptor 4 (Rattus norvegicus); test: Inhibition of TLR4 in Sprague-Dawley rat cardiomyocytes assessed as reduction in hypoxia-induced LDH release at 30 uM preincubated for 1 hr followed by hypoxia for 3 hrs by NADH detection based colorimetric analysis; assay type: cell-based
Mus musculus [9] = test: as §1, with “fibrosis” for “creatine kinase levels”, “after” for “after by”, “LAD by hematoxylin/eosin staining based light microscopy” for “LAD”; assay type: functional, organism-based
Mus musculus [10] = test: as §1, with “levels levels” for “levels”, “24 hrs” for “7 days”; assay type: functional, organism-based

For `CCCCCCCCNc1nc(=O)n(Cc2ccccc2)cc1C`, the Activity [1] was “Non-Toxic”, the “fold change (FC)” value [2] was 2.7 and the fold change (FC) [3] was 2.7. For the same compound, the inhibition [4] was “Active”, the inhibition [5] was “Active” and the Activity (Mus musculus [6]) was “Active”. For the same compound, the inhibition [7] was “Active”, the Activity (Cardiac muscle cell) was “Toxic” and the inhibition [8] was “Active”. The Activity (Mus musculus [9]) was “Active” and the Activity (Mus musculus [10]) was “Active”.
